This passage reports Kd and KD results from article doi:10.1101/2025.11.21.689733v1, “Identification and Characterization of a Small Molecule Ligand for the Huntingtin-HAP40 Complex” (biorxiv, 2025).

SMILES strings stand for the structures.

Holding throughout (type): binding
Test [1] deals with T1, HTTQ23-HAP40 (HTT-HAP40) (Homo sapiens, UniProt P23610+P42858, P42858:INS38QQ).
T1 construct: full-length HTT (3144 aa, polyQ tract Q23) co-complex with HAP40, ~390 kDa; C-terminal Avi-tag biotinylated (BirA) for SPR; Sf9 baculovirus
T1 sequence (P42858 with tags, fused parts or gaps INS38QQ): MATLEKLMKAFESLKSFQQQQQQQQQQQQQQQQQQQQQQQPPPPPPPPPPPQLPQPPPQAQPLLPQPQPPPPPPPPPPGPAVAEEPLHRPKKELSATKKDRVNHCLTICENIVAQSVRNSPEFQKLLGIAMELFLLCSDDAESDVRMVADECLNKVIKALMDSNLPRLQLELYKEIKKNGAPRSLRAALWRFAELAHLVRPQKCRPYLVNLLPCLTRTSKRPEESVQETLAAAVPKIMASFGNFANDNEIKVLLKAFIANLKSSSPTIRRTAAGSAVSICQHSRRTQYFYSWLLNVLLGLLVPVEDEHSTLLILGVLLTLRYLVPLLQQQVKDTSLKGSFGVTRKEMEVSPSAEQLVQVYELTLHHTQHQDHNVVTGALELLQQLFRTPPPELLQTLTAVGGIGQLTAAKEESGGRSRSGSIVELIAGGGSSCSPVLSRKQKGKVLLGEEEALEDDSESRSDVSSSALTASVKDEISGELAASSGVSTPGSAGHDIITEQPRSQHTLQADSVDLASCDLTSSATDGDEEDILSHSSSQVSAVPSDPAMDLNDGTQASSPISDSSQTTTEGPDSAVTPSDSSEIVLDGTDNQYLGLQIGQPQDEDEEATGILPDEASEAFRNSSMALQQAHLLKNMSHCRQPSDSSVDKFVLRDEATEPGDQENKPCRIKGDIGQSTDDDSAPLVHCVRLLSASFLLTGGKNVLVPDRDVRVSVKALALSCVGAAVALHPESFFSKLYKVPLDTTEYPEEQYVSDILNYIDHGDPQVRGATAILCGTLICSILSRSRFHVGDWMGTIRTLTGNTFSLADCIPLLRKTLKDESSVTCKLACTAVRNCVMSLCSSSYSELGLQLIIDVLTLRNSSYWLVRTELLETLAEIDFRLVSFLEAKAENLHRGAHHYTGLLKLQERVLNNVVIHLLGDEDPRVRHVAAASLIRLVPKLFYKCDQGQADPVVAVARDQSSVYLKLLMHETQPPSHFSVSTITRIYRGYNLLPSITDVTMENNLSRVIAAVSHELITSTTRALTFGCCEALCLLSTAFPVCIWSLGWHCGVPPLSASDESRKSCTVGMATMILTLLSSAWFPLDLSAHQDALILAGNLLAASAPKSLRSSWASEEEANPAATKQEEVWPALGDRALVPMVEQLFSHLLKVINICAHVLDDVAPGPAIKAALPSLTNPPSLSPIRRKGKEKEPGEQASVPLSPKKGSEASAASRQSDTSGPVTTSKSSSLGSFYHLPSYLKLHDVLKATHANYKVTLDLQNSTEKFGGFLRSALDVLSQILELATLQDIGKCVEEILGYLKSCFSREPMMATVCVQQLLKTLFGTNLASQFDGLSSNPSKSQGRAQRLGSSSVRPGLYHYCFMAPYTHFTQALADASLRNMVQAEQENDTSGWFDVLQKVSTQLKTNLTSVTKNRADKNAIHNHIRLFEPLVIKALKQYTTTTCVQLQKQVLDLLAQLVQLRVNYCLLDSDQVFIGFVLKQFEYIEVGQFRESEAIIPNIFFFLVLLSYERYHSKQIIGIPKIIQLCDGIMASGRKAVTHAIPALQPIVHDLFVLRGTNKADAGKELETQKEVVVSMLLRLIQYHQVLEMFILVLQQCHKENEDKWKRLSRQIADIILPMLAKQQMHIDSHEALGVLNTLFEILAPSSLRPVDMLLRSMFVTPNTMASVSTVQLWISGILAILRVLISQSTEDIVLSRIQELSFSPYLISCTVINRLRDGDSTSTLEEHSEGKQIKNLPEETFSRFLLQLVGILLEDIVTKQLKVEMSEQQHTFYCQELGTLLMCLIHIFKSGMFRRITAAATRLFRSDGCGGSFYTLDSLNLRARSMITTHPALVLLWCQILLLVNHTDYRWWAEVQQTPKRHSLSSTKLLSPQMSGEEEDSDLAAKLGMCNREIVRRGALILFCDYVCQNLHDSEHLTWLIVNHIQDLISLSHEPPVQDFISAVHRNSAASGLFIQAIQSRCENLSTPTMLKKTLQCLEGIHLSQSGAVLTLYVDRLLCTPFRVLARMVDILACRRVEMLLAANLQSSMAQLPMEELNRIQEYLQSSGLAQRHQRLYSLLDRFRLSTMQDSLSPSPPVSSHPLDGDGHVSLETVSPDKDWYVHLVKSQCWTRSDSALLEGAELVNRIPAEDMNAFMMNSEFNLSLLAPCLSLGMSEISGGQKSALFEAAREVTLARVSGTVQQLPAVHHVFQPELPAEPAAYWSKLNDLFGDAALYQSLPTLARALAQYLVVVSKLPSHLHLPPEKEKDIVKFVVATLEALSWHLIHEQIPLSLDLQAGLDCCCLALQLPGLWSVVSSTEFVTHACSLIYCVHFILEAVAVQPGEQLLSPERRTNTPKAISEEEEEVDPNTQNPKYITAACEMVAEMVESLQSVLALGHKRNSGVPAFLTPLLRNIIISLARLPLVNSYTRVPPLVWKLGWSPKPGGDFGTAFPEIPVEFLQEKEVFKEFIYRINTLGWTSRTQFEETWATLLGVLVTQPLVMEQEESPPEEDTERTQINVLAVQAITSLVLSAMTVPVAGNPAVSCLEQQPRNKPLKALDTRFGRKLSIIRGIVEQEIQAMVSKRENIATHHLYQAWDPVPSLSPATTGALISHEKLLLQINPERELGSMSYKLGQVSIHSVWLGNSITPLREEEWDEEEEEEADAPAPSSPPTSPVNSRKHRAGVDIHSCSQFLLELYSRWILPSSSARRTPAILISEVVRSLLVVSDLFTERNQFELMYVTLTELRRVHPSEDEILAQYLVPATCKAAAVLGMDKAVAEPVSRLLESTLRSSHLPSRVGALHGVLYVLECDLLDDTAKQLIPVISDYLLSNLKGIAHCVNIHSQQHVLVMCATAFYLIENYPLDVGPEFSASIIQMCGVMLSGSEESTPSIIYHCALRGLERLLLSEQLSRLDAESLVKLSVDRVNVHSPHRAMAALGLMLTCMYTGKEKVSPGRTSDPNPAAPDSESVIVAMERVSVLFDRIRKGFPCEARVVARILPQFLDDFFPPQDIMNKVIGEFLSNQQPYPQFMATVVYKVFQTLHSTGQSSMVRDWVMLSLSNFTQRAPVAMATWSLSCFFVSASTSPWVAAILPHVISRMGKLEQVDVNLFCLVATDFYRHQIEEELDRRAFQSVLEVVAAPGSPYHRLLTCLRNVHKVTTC
T1 sequence (P23610 whole entry, stated change not applied): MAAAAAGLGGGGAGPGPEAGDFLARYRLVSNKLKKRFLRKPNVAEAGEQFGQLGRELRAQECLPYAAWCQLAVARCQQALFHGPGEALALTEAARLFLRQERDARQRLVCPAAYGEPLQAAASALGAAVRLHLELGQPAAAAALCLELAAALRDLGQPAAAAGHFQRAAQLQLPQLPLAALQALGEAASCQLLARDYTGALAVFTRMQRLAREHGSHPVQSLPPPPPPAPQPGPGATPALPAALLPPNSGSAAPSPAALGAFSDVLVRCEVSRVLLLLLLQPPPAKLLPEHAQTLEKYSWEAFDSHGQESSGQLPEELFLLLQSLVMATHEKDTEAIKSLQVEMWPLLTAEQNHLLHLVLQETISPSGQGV
Description: SPR, […] model.

For test [2], the target named is T1, HTTQ23-HAP40 (HTT-HAP40). Description: SPR, steady state, […] model. The conditions noted are these: read-out: apparent KD.
For test [3], the target named is T1, HTTQ23-HAP40 (HTT-HAP40). Briefly: SPR, […] model. The note with it: pH 7.4, 150 mM NaCl, 4% DMSO. (Surface plasmon resonance follows binding to a sensor surface in real time, without labels.)
The target in a further test is T2, HTTQ54-HAP40 (Homo sapiens, UniProt P23610+P42858, P42858:INS38QQQQQQQQQQQQQQQQQQQQQQQQQQQQQQQQQ).
T2 construct: gene HTT; full-length HTT with polyQ tract of 54 residues in complex with HAP40; C-terminal Avi-tag biotinylated; Sf9 baculovirus
Description: SPR. The source says: SPR on HTTQ54-HAP40 | binding affinity was indistinguishable between wild-type (Q23) HTT-HAP40 and its expanded form (Q54)

On HTTQ23-HAP40 (HTT-HAP40) [1], `Cn1ncc2ccc(CNc3ccccc3C3CC(F)(F)C3)cc21` [compound 3, 3] yielded a Kd of 3.5 ± 1 µM.
As to `Cn1ncc2ccc(CNc3ccccc3[C@H]3CC3(F)F)cc21` (single isomer, unassigned; peak 2) [compound 1, Peak 2 of AS-MS Hit 1], at HTTQ23-HAP40 (HTT-HAP40) [2], the Kd amounted to 4 ± 2 µM.
With `Cc1nn(C)c2cc(CNc3ccccc3C3CCC(F)(F)C3)ccc12` (centres unmarked) [compound 21, 21], at HTTQ23-HAP40 (HTT-HAP40) [3], the KD result is “These modifications were well-tolerated but did not improve affinity”.
`Cn1ncc2ccc(CNc3ccccc3C3CC3(F)F)cc21` (racemic) [compound 1, AS-MS Hit 1]: the values for the Kd at HTTQ54-HAP40 and at HTTQ23-HAP40 (HTT-HAP40) [2] were 4 ± 1 µM and 5 ± 2 µM, respectively.
